Measured values as given in patent US11980658B2, “Immunotherapeutic molecules and uses thereof” (priority 2012, dated 2024).
“Also recorded” adds a separate entry of the source. Where no end group is shown, it is not given here.

Tests used:
Format in all cases: cell-based, human
[1] = system: Ara h 1-specific CD4+ T-cell lines (TCL); assay: Antigen-induced TCL proliferation, 3H-thymidine uptake assay; settings: for Donor responder frequency for TCL recognition of Ara h 1 20-mer peptides: n=18 peanut-allergic subjects, SI≥2.5
Source text: Ara h 1-specific oligoclonal TCL were generated from peripheral blood mononuclear cells (PBMC) of peanut-allergic subjects using 5,6-carboxyfluorescein diacetate succinimidylester (CFSE)-based methodology (Mannering et al. J Immunol Methods. 2005; 298(1-2):83-92) as described (Prickett et al. 2011 supra), with CPE ([…]), Ara h 1 (10 gg/mL) or 20-mer peptides spanning the Ara h 1 sequence (11 amino acid (aa) overlap (17 aa overlap for the last peptide); Table 5; 10 pg/mL/peptide) as the driving antigens. All TCL were tested for specificity (proliferation) to individual Ara h 1 20-mers (10 pg/mL) as well as CPE ([…]) and/or Ara h 1 (10 pg/mL) Core epitope sequences were mapped within selected 20-mers using peptide sets truncated from the N- or C-terminus of the 20-mer as described (Prickett et al. 2011 supra).
(§1) All culturing was performed in RPMI-1640 containing 2 mM L-glutamine, 100 IU/mL penicillin-streptomycin and 5% heat-inactivated human AB serum (Sigma-Aldrich, St Louis, USA) (cRPMI). Antigen-induced TCL proliferation was assessed by ^3H-thymidine (3H-TdR) uptake assays as described (Prickett et al. 2011 supra). A stimulation index (SI; cpm antigen-stimulated T cells/cpm unstimulated T cells) >2.5 was considered positive and all positive responses confirmed in >2 assays. HLA-restriction of epitope recognition by TCL was assessed using monoclonal antibodies (mAb) against HLA-DR (L243), HLA-DQ (SVP-L3) or HLA-DP (B7/21) to block epitope presentation as described (Prickett et al. 2011 supra). To allow detection of peptide-induced CD4+ T-cell proliferation within whole PBMC, 7-day cultures of CFSE-labelled PBMC were set up as described for TCL generation (Prickett et al. 2011 supra). At least 10,000 CD4^+ T cells were analyzed per sample and SI calculated as percentage of CD4^+CFSE^lo (proliferated) cells with antigen/percentage of CD4^+CFSE^lo cells without antigen (background). The detection threshold for a specific response in this assay was assessed by expanding peptide-specific TCL from proliferated CD4^+ cells over a range of SI values for three subjects. Specific TCL could be generated from divided T cells with SI as low as 1.1 in all three subjects (data not shown) allowing designation of an SI>1.1 as positive.

HLA-DR, HLA-DQ, HLA-DP = assay: HLA class II restriction of epitope recognition by TCL (blocking mAbs); settings: anti-HLA-DR, -DP or -DQ mAbs
Experimental: as §1
There is no identified HLA-II association with peanut allergy (Shreffler et al. Ann Allergy Asthma Immunol 2006; 96(6):865-9), therefore peptides selected for therapy must bind diverse HLA-II molecules for wide applicability. To determine the HLA-II type presenting each epitope, anti-HLA-DR, -DP or -DQ mAbs were used to block individual epitope presentation to T cells. […] At least two subjects and/or TCL were tested per epitope (FIG. 8).

basophils = assay: Basophil activation test (CD63 upregulation by flow cytometry)
Experimental: Basophil activation was assessed by CD63 upregulation detected by flow cytometry as described (Drew et al. J Immunol. 2004; 173(9):5872-9). Positive controls were rabbit anti-human IgE antibody (7.5 ug/mL; DAKO Corporation, CA, USA), N-formyl-methionine-leucine-phenylalanine (fMLP) (0.4 ug/mL; Sigma) and CPE. CPE, Ara h 1 and peptides were tested over a 3-log concentration range (5, 0.5 and 0.05 ug/mL)

ALMLPHFNSKAMVIVVVNKG [compound 50]
Donor responder frequency for TCL recognition of Ara h 1 20-mer peptides [1]: 33%

VEIKEGALMLPHFNSKA (Chemcially synthezised) [(436-452)]
HLA class II restriction (mAb that blocked epitope recognition) (HLA-DR, HLA-DQ, HLA-DP): blocked by anti-HLA-DR for some TCL but by anti-HLA-DQ for others

ALMLPHFNSKAMVIVVV (Chemcially synthezised) [(442-458)]
HLA class II restriction (mAb that blocked epitope recognition) (HLA-DR, HLA-DQ, HLA-DP): HLA-DR-restricted

WSTRSSENNEGVIVKVSKE [(353-371)]
HLA class II restriction (mAb that blocked epitope recognition) (HLA-DR, HLA-DQ, HLA-DP): blocked by anti-HLA-DQ in both subjects tested

KAMVIVVVNKGTGNLELVAV (Chemcially Synthezised) [compound 51]
TCL stimulation / recognition (in words) [1]: efficiently stimulated TCL specific for either epitope | Donor responder frequency for TCL recognition of Ara h 1 20-mer peptides [1]: 33%

FQNLQNHRIVQIEAKPNTLV [(206-225)]
TCL stimulation / recognition (in words) [1]: efficiently stimulated TCL specific for either epitope

NNFGKLFEVKPDKKNPQLQ [(409-427), NNFGKLFEVKPDKKNPQLQ]
Basophil activation (percentage of activated CD63hi basophils) (basophils): 8%

GDVFIMPAAHPVAINASS (Chemcially synthezised) [(507-524)]
HLA class II restriction (mAb that blocked epitope recognition) (HLA-DR, HLA-DQ, HLA-DP): blocked by anti-HLA-DR for some TCL but by anti-HLA-DQ for others; also recorded: HLA-DQ restricted

B1: Ara h 1: major peanut allergen, 7S seed storage glycoprotein or vicilin, enriched from CPE by liquid chromatography (protein, listed as Homo sapiens)
chain: MRGRVSPLMLLLGILVLASVSATHAKSSPYQKKTENPCAQRCLQSCQQEPDDLKQKACESRCTKLEYDPRCVYDPRGHTGTTNQRSPPGERTRGRQPGDYDDDRRQPRREEGGRWGPAGPREREREEDWRQPREDWRRPSHQQPRKIRPEGREGEQEWGTPGSHVREETSRNNPFYFPSRRFSTRYGNQNGRIRVLQRFDQRSRQFQNLQNHRIVQIEAKPNTLVLPKHADADNILVIQQGQATVTVANGNNRKSFNLDEGHALRIPSGFISYILNRHDNQNLRVAKISMPVNTPGQFEDFFPASSRDQSSYLQGFSRNTLEAAFNAEFNEIRRVLLEENAGGEQEERGQRRWSTRSSENNEGVIVKVSKEHVEELTKHAKSVSKKGSEEEGDITNPINLREGEPDLSNNFGKLFEVKPDKKNPQLQDLDMMLTCVEIKEGALMLPHFNSKAMVIVVVNKGTGNLELVAVRKEQQQRGRREEEEDEDEEEEGSNREVRRYTARLKEGDVFIMPAAHPVAINASSELHLLGFGINAENNHRIFLAGDKDNVIDQIEKQAKDLAFPGSGEQVEKLIKNQKESHFVSARPQSQSQSPSSPEKESPEKEDQEEENQGGKGPLLSILKAFN
Basophil activation (percentage of activated CD63hi basophils) (basophils): 80-90%
